Some test systems named below: M14; UACC-257; Malme-3M; COLO 205; SF-539; UACC-62; HL-60; NCI-H460; SK-MEL-2; SK-MEL-5; RPMI-8226; Hs-578T; NCI-H226; LOX IMVI; OVCAR-3; HCT-15; SNB-19; OVCAR-5; PC-3; A498.
Holding throughout (assay): NCI anticancer screen, dose series, 48 h

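How tested: cells in 96-well plates exposed to compound for 48 hours at five concentrations. The concentration for 50% growth inhibition is given as GI50.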 Activity calls are given as the source filed them. Cut-off read from the data, not from the text of the source: active = GI50 up to about 1.1 µM and inactive = higher.

Consider `CC(=O)OCc1cncn1S(=O)(=O)c1ccc(C)cc1`, for which the GI50 was 42.2 µM (inactive) in the experiment on M14; > 100 µM (inactive) with UACC-257; > 100 µM (inactive) with Malme-3M; 53.1 µM (inactive) with COLO 205; 86.9 µM (inactive) in the experiment on SF-539; > 91 µM (inactive) in the experiment on UACC-62. Further, the GI50 in the experiment with HL-60 is 10.8 µM (inactive); with NCI-H460, 29.9 µM (inactive); in the experiment on SK-MEL-2 it was > 100 µM (inactive); in the experiment with SK-MEL-5, 24.2 µM (inactive); in the experiment on RPMI-8226, 35 µM (inactive); in the experiment on Hs-578T, > 78.5 µM (inactive). For the same compound, the GI50 in the experiment with NCI-H226 is > 100 µM (inactive); with LOX IMVI, 30.8 µM (inactive); in the experiment with OVCAR-3, 43.5 µM (inactive); in the experiment on HCT-15, 20.3 µM; with SNB-19, > 100 µM (inactive); in the experiment on OVCAR-5 it was > 100 µM (inactive). Also, in the experiment on PC-3, the GI50 is > 100 µM (inactive).
Turning to `CCNc1nnc(-c2ccccc2Nc2ccccc2-c2nnc(NCC)s2)s1`, the GI50 in the experiment on M14 is 14.5 µM (inactive); in the experiment with UACC-257, 23.6 µM (inactive); in the experiment with Malme-3M, 19.2 µM (inactive); with COLO 205, > 32.8 µM (inactive); in the experiment with UACC-62 it was 11.5 µM (inactive); in the experiment on NCI-H460 it was 5.66 µM (inactive). For the same compound, the GI50 with SK-MEL-2 is 9.77 µM (inactive); in the experiment on SK-MEL-5 it was 5.52 µM (inactive); in the experiment with RPMI-8226, 14 µM (inactive); with Hs-578T it was 12.3 µM (inactive); in the experiment on NCI-H226, 20.2 µM (inactive); in the experiment on A498, 13.5 µM (inactive). The GI50 was 8.05 µM (inactive) with LOX IMVI; 18.3 µM (inactive) in the experiment on OVCAR-3; 4.37 µM in the experiment with HCT-15; 27.4 µM (inactive) with SNB-19; 18.2 µM (inactive) in the experiment on OVCAR-5; 17 µM (inactive) in the experiment with PC-3.
As for `C(=C\c1cccs1)/c1cccc(/C=C/c2cccs2)n1`, the GI50 was > 100 µM (inactive) in the experiment with M14; > 100 µM (inactive) in the experiment on UACC-257; 1.72 µM (inactive) in the experiment with Malme-3M; 32.1 µM (inactive) in the experiment with COLO 205; > 100 µM (inactive) with SF-539; > 100 µM (inactive) in the experiment on UACC-62. Also, the GI50 is > 100 µM (inactive) in the experiment on HL-60; 36.4 µM (inactive) in the experiment with NCI-H460; > 100 µM (inactive) in the experiment on SK-MEL-2; > 100 µM (inactive) with SK-MEL-5; > 100 µM (inactive) with RPMI-8226; 2.58 µM (inactive) with Hs-578T. In addition, the GI50 is > 100 µM (inactive) in the experiment on NCI-H226; > 100 µM (inactive) in the experiment on LOX IMVI; 50.8 µM (inactive) in the experiment on OVCAR-3; over 100 µM with HCT-15; 78.9 µM (inactive) in the experiment on SNB-19; > 100 µM (inactive) in the experiment with OVCAR-5. The GI50 in the experiment with PC-3 was > 100 µM (inactive).
As for `CCCCCCCCCCCCCCCCCCOCC(O)COP(=O)(O)OCC1OC(n2ccc(N)nc2=O)C(O)C1O` (centres undefined), the GI50 is 24.8 µM (inactive) in the experiment with UACC-257; 7.05 µM (inactive) in the experiment with Malme-3M; 10.9 µM (inactive) in the experiment with COLO 205; 16.6 µM (inactive) in the experiment with SF-539; 23.9 µM (inactive) in the experiment on UACC-62; 9.84 µM (inactive) in the experiment with HL-60. In addition, the GI50 is 3.69 µM (inactive) in the experiment on NCI-H460; 29.9 µM (inactive) with SK-MEL-5; 24.9 µM (inactive) in the experiment on RPMI-8226; 36.4 µM (inactive) in the experiment on Hs-578T; > 100 µM (inactive) in the experiment on NCI-H226; 11 µM (inactive) in the experiment on A498. For the same compound, the GI50 in the experiment on LOX IMVI is 14.1 µM (inactive); in the experiment on OVCAR-3, 43.5 µM (inactive); in the experiment with HCT-15 it was 15.5 µM; in the experiment with SNB-19, 11.6 µM (inactive); in the experiment with OVCAR-5, 33.6 µM (inactive); in the experiment with PC-3, 6.01 µM (inactive).
On to `COc1cc(C=O)cc(/C=N/n2c3ccccc3c3ccccc32)c1O`, for which the GI50 was 4.6 µM (inactive) in the experiment on M14; 26.8 µM (inactive) in the experiment on UACC-257; 3.52 µM (inactive) in the experiment on Malme-3M; 18.8 µM (inactive) with COLO 205; 4.32 µM (inactive) in the experiment with SF-539; 6.67 µM (inactive) in the experiment with UACC-62. Also, the GI50 with HL-60 is 5.81 µM (inactive); in the experiment on NCI-H460, 30.5 µM (inactive); in the experiment with RPMI-8226, 5.01 µM (inactive); with Hs-578T, 6.81 µM (inactive); with NCI-H226, 6.3 µM (inactive); with A498, 20.7 µM (inactive). For the same compound, the GI50 in the experiment with LOX IMVI was 14.2 µM (inactive); with OVCAR-3 it was 45.2 µM (inactive); in the experiment on HCT-15, 14.5 µM; in the experiment on SNB-19 it was 21.3 µM (inactive); with OVCAR-5, 45.1 µM (inactive); in the experiment on PC-3 it was 5.41 µM (inactive).
As for `CC(=O)Oc1ccc2cc(Oc3ccc(Cl)cc3)c(=O)oc2c1`, the GI50 with M14 was 49.9 µM (inactive); with UACC-257, 24.1 µM (inactive); with Malme-3M, 25 µM (inactive); in the experiment on SF-539 it was 33.3 µM (inactive); with HL-60, 49.4 µM (inactive); in the experiment with NCI-H460 it was 40.7 µM (inactive). Also, the GI50 in the experiment with SK-MEL-5 is 20.4 µM (inactive); in the experiment with RPMI-8226, 34.8 µM (inactive); in the experiment with Hs-578T, 79.1 µM (inactive); in the experiment on NCI-H226 it was 41.5 µM (inactive); with A498, 25.2 µM (inactive); in the experiment on LOX IMVI, 37.9 µM (inactive). Further, the GI50 in the experiment with OVCAR-3 is 19.2 µM (inactive); with HCT-15 it was 28.8 µM; in the experiment on SNB-19, 60.4 µM (inactive); in the experiment with OVCAR-5 it was > 100 µM (inactive); with PC-3, 28.2 µM (inactive).
Consider `CC(=O)Nc1ccc2c(c1)C(=O)c1cccc(F)c1-2`, for which the GI50 was 50.9 µM (inactive) in the experiment on M14; 97.5 µM (inactive) in the experiment with UACC-257; > 100 µM (inactive) in the experiment on Malme-3M; 53 µM (inactive) with COLO 205; 0.0234 µM (active) with SF-539; 38 µM (inactive) in the experiment with UACC-62. The GI50 in the experiment with HL-60 is > 100 µM (inactive); in the experiment on NCI-H460, 35.4 µM (inactive); in the experiment with SK-MEL-2 it was > 100 µM (inactive); with SK-MEL-5 it was 45.4 µM (inactive); with RPMI-8226 it was 38.8 µM (inactive); with Hs-578T it was 37.2 µM (inactive). The GI50 in the experiment with NCI-H226 was 35.2 µM (inactive); in the experiment on LOX IMVI, 38.2 µM (inactive); in the experiment on OVCAR-3, 68.2 µM (inactive); in the experiment with HCT-15, 24.7 µM; in the experiment on SNB-19 it was > 100 µM (inactive); in the experiment on OVCAR-5, 80.9 µM (inactive). In the experiment with PC-3, the GI50 is 45.7 µM (inactive).
With `O=C1O/C(=C(/Br)c2ccc(Cl)c(Cl)c2)c2ccccc21`, the GI50 in the experiment on M14, in the experiment with UACC-257, in the experiment on COLO 205, in the experiment with SF-539, in the experiment with UACC-62 and in the experiment with HL-60 was > 10 µM (inactive) in each case. The GI50 in the experiment on NCI-H460, in the experiment with SK-MEL-2, in the experiment with SK-MEL-5, in the experiment with RPMI-8226, with Hs-578T and in the experiment with NCI-H226 was > 10 µM (inactive) in each case. For the same compound, the GI50 was > 10 µM (inactive) with LOX IMVI; > 10 µM (inactive) in the experiment with OVCAR-3; over 10 µM in the experiment on HCT-15; > 10 µM (inactive) in the experiment with SNB-19; > 10 µM (inactive) in the experiment on OVCAR-5; > 10 µM (inactive) in the experiment on PC-3.
For the compound `Cn1c(=O)c2c(nc(NCCNc3nc4c(c(=O)n(C)c(=O)n4C)n3C)n2C)n(C)c1=O`, the GI50 in the experiment on M14, with UACC-257, with Malme-3M, in the experiment on UACC-62, in the experiment with NCI-H460 and with SK-MEL-2 was > 100 µM (inactive) in each case. Further, the GI50 with SK-MEL-5, with Hs-578T, in the experiment with NCI-H226, in the experiment with A498, in the experiment on LOX IMVI and with OVCAR-3 was > 100 µM (inactive) each time. Moreover, the GI50 with HCT-15 is over 100 µM; with SNB-19 it was > 100 µM (inactive); in the experiment with OVCAR-5, > 100 µM (inactive); in the experiment on PC-3, > 100 µM (inactive).
In the case of `CC(=O)Nc1ccc(NNc2cc(=O)n(C)c(=O)[nH]2)cc1`, the GI50 was 8.89 µM (inactive) in the experiment on M14; 13.5 µM (inactive) with UACC-257; 12.4 µM (inactive) in the experiment with Malme-3M; 11.8 µM (inactive) in the experiment on COLO 205; 9.73 µM (inactive) in the experiment with SF-539; 2.95 µM (inactive) with HL-60. In addition, the GI50 was 17.1 µM (inactive) in the experiment on NCI-H460; 16.7 µM (inactive) with SK-MEL-5; 2.84 µM (inactive) with RPMI-8226; 25.6 µM (inactive) in the experiment on Hs-578T; 22.4 µM (inactive) in the experiment with NCI-H226; 23.2 µM (inactive) with A498. For the same compound, the GI50 was 2.56 µM (inactive) in the experiment with LOX IMVI; 2.68 µM (inactive) in the experiment with OVCAR-3; 8.55 µM with HCT-15; 17.7 µM (inactive) in the experiment on SNB-19; 14.1 µM (inactive) in the experiment with OVCAR-5; 4 µM (inactive) with PC-3.
`Cc1cc(NS(=O)(=O)c2ccc(NC(=O)c3cccc4c(NNc5ccc(S(=O)(=O)N=C(N)N)cc5)c5ccccc5nc34)cc2)no1`: the GI50 was > 100 µM (inactive) with M14; > 100 µM (inactive) in the experiment on UACC-257; 94.4 µM (inactive) in the experiment with Malme-3M; 91.6 µM (inactive) in the experiment on COLO 205; 40.1 µM (inactive) in the experiment on SF-539; 42.9 µM (inactive) in the experiment with UACC-62. Besides, the GI50 with HL-60 is 26.7 µM (inactive); in the experiment on NCI-H460, 51.9 µM (inactive); with SK-MEL-2, 19.5 µM (inactive); with SK-MEL-5, 44.7 µM (inactive); with RPMI-8226, 82 µM (inactive); in the experiment on Hs-578T, 27.4 µM (inactive). The GI50 with NCI-H226 is 25.2 µM (inactive); with LOX IMVI it was 34.6 µM (inactive); with OVCAR-3, 41.2 µM (inactive); in the experiment with HCT-15, 63.4 µM; with SNB-19, 45.6 µM (inactive); in the experiment on OVCAR-5, 83.6 µM (inactive). For the same compound, in the experiment on PC-3, the GI50 is 46.1 µM (inactive).

The values above are taken from ChEMBL document CHEMBL1201862, “PubChem BioAssay data set” (2004).
